Results: patent US20240368104A1, “Novel Dialkoxynaphtho[2,3-C]Furan-1(3H)-One Derivatives and Pharmaceutical Composition For Preventing or Treating Respiratory Disease or SARS-COV-2 Infection Disease, Comprising Same” (priority 2021, published 2024)
Like-named read-outs stand apart in the source and are kept apart here.

Key:
[1] = tested on: SFTS virus (KADGH; NCCP43261); experiment: microbe, parasite or virus in culture; format: cell-based, severe fever with thrombocytopenia syndrome virus; conditions: Severe fever with thrombocytopenia syndrome virus, Vero, 24 h, read-out: SFTSV inhibition (IC50, μM)
[2] = tested on: SARS-COV-2; experiment: microbe, parasite or virus in culture; format: cell-based; set-up: SI (Selectivity Index, CC50/IC50): unit not given here; conditions: for SI (Selectivity Index, CC50/IC50): SARS-COV-2, values >50 assumed to be 50; for IC50: read-out: SARS-COV-2 inhibition (IC50)
[3] = tested on: IL-4 secretion in RBL-2H3 cells; experiment: Inhibition of IL-4 secretion in RBL-2H3 cell line (A23187 induced, ELISA); format: cell-based; conditions: Rattus norvegicus
Protocol: The RBL-2H3 cell line was purchased from the American Type Culture Collection (ATCC #CRL-2256). The cells were diluted at a concentration of 1×10^6 cells/ml in RPMI medium containing 15% fetal bovine serum (FBS) and antibiotics (penicillin at 100 U/mL, streptomycin at 100 μg/mL), distributed at 200 μl/well in a 48 well plate, and cultured in a 37° C., 5% CO2 incubator for 24 hours. In 24 hours later, the cells were pre-treated one hour before with a test drug and AS1517499 (STAT6 inhibitor) as a control drug, and treated with 1 uM of A23187 for six hours to induce an immune response, after which a group not containing the drug was used as a control. In order to measure a secretion level of cytokine IL-4, the medium was collected from the well plate and centrifuged at 125×g for five minutes to remove a residue, and 100 μl of the medium was used to measure an amount of IL-4 secreted from the cells by using IL-4 enzyme-linked immunosorbent assay (ELISA, Komabiotech). A degree of inhibition of cell secretion by the drug was calculated using [Equation 1] below.
First of all, 288 kinds of materials were treated at a single concentration of 10 uM so as to select 60 kinds of materials which inhibit secretion of IL-4 by 75% or more (FIG. 19).
After that, a repeated experiment and a two-concentration (10, 3 uM) test were performed using the selected 60 kinds of materials so as to select the final eight kinds, and the IC50 value was calculated and shown in Table 3.

[4] = tested on: IL-4 secretion in mouse splenocytes; experiment: Inhibition of IL-4 secretion in mouse splenocytes (Concanavalin A, ELISA); format: cell-based, Balb/c mice; conditions: for inhibition at 1 µM: Splenocyte, read-out: IL-4 Secretion inhibitory ability (%); for IL-4 pg/ml: Concanavalin A 5 μg/mL, 48 hours
Protocol: (§1) The isolated splenocytes were diluted at a concentration of 5×10^6 cells/mL in RPMI medium containing 10% fetal bovine serum (FBS) and antibiotics (penicillin at 100 U/mL, streptomycin at 100 μg/mL), distributed at 500 μl/well in a 24 well plate, and cultured in a 37° C., 5% CO2 incubator for 48 hours. When splenocytes were distributed, an immune reaction was induced by treating with 5 μg/mL of Concanavalin A, and at this time, the splenocytes were treated with the materials selected in Experimental Example 3 at a concentration of 1 uM. First, in order to measure Th2 cytokines, the medium was collected from the 24-well plate, and only the supernatant was separated through centrifugation at 800×g for five minutes, after which 100 μl of the supernatant per well was used in an enzyme-linked immunosorbent assay (ELISA, Komabiotech) experiment so as to measure a degree of secretion of Th2 cytokines IL-4 and IL-5. A degree of inhibition against secretion of cytokines by the test material was calculated using [Equation 2] below, and the measurement results are shown in Table 7.

[5] = tested on: IL-5 secretion in mouse splenocytes; experiment: Inhibition of IL-5 secretion in mouse splenocytes (Concanavalin A, ELISA); format: cell-based, Balb/c mice; conditions: for inhibition at 1 µM: Splenocyte, read-out: IL-5 Secretion inhibitory ability (%); for IL-5 pg/ml: Concanavalin A 5 μg/mL, 48 hours
Protocol: as §1

[6] = in vitro; conditions: African green monkey
[7] = tested on: IL-5 expression in Th2 cells; experiment: Inhibition of IL-5 expression in Th2 cells (ELISA); format: cell-based, Balb/C mice; conditions: Splenocyte, read-out: Inhibitory ability against IL-5 expression (%)
Protocol: Specifically, after spleens were collected from Balb/C mice, CD4+ T cells were isolated therefrom and were seeded at 1-2×10^6 per well into a 48-well tissue culture plate coated with anti-CD3 (5 ug/ml) and anti-CD28 (1 ug/ml). At this time, the culture medium was incubated with IL-2 (20 ng/ml), IL-4 (100 ng/ml), anti-IFNγ (10 ug/ml), anti-IL12 (10 ug/ml), and a derivative of 1 nM for two days, transferred to a new tissue culture plate, and further cultured for three days to induce differentiation into Th2 cells. After replacing with a new medium containing anti-IFNγ (10 ug/ml), anti-IL12 (10 ug/ml) and a derivative of 1 nM, polarization of Th2 cells was induced using PMA and A23187. After two days of culture, the cells were centrifuged and the culture medium was taken to perform IL-5 ELISA. IL-5 ELISA was performed according to the test method of the kit manufacturer.

[8] = tested on: Balb/c mouse asthma model; experiment: Balb/c mouse asthma model (ovalbumin), BALF IgE, IL-4, IL-5 and inflammatory cells; format: in vivo, Balb/c mice; conditions: Example 73 10 mg/kg oral, dexamethasone 1 mg/kg intraperitoneal
Protocol: In detail, five-week-old Balb/c mice were purchased and acclimated for one week, after which the mice were sensitized systemically by intraperitoneal injection with 0.1% ovalbumin (OVA 1 mg/mL, Al(OH)3 20 mg/mL) at 100 μl/mouse on days 0 and 14 from a week after the acclimation. From a week (day 21) after a final systemic sensitization, the compound of Example 73 was orally administered everyday at 10 mg/kg to mice for ten days, and dexamethasone was intraperitoneally administered at 1 mg/kg as a positive control group. In one hour later, 0.2% ovalbumin solution was sprayed with a nebulizer (PARIBoy SX, GmbH, Germany) so as to be inhaled for one hour. In five hours after the final sensitization (day 30), an autopsy was performed, and 1 mL of phosphate buffer solution was flowed through a tracheotomy to collect a bronchoalveolar lavage fluid (BALF). The collected BALF was centrifuged at 3000 rpm for ten minutes, and the supernatant was used to measure bioactive materials (IL-4, IL-5), and pellets were used to measure the number of inflammatory cells. In addition, an IgE concentration in the isolated BALF was measured using IgE enzyme-linked immunosorbent assay (ELISA, Komabiotech), and IL-4 and IL-5 were measured using their respective enzyme-linked immunosorbent assay (ELISA, IL-4: Enzo #ADI-900-043, IL-5: R&D system #M5000).
The results are shown in Table 8 and FIG. 22, and each secretion inhibitory activity was calculated in the same manner as in [Equation 2] of Experimental Example 4.
In addition, the BALF pellets were re-dissolved by adding 0.5 mL of phosphate buffer solution, and then 0.1 mL for each thereof was added to a 96-well plate and centrifuged at 800 rpm for five minutes to attach cells to the bottom (three wells per sample). Then, the cells were stained with Diff Quik staining solution (Sysmex) and the number of cells was measured with […].
The results were shown in FIG. 21, the SPSS program was used for statistical processing, the Levene test was performed for equal-variance test, and the significance test was performed through one-way ANOVA.

[9] = Severe acute respiratory syndrome coronavirus 2, Vero cells, 24 hours infection
[10] = RBL-2H3 cells, 1 uM A23187, read-out: IL-4 secretion inhibition IC50
[11] = mouse splenocytes, compound 1 μM
[12] = RBL-2H3, read-out: IL-4 secretion inhibition IC50 (μM)
[13] = Severe acute respiratory syndrome coronavirus 2, Vero, 24 h
[14] = Th2 cells from mouse splenocytes, compound 1 nM

Row | SMILES | SI (Selectivity Index, CC50/IC50) [2] | IC50 [2, 9] | IL-4 pg/ml [4, 11] | IL-5 pg/ml [5, 11] | CC50 [6] | inhibition at 0.001 µM [7, 14] | other results
1 | NC(=O)c1nc(F)c[nH]c1=O [Favipiravir] |  |  |  |  |  |  | IC50 [1]: 278 µM
2 | COc1cc2cc3c(c(-c4cc5c(cc4OC(=O)c4ccccn4)OCO5)c2cc1OC)C(=O)OC3 [Example 169, 6-(6,7-dimethoxy-3-oxo-1,3-dihydronaphtho[2,3-c]furan-4-yl)benzo[d][1,3]dioxol-5-yl picolate] | 40.73 | 1.23 µM | 46.7 pg/mL | 67.1 pg/mL | > 50 µM |  | IC50 [3, 10]: 2.34 µM; inhibition at 1 µM [4, 11]: 86.3%; inhibition at 1 µM [5, 11]: 27.9%
3 | CCCCN(C)c1ncc(-c2c3c(cc4cc(OC)c(OC)cc24)COC3=O)cn1.Cl [Example 76, 9-(2-(butyl(methyl)amino)pyrimidin-5-yl)-6,7-dimethoxynaphtho[2,3-c]furan-1(3H)-one hydrochloride] | 270.89 |  | 1.2 pg/mL | 13.4 pg/mL |  |  | IC50 [3, 12]: 4.05 µM; inhibition at 1 µM ([4]; Mus musculus): 99.6%; inhibition at 1 µM ([5]; Mus musculus): 85.6%
4 | COc1cc2cc3c(c(-c4cnc(N(CC(C)C)CC(C)C)nc4)c2cc1OC)C(=O)OC3.Cl [Example 86, 9-(2-(diisobutylamino)pyrimidin-5-yl)-6,7-dimethoxynaphtho[2,3-c]furan-1(3H)-one hydrochloride] | 0.75 |  | 96.0 pg/mL | 71.0 pg/mL | 19.2 µM |  | IC50 [2, 13]: 25.7 µM; IC50 [3, 12]: 2.21 µM; inhibition at 1 µM ([4]; Mus musculus): 71.8%; inhibition at 1 µM ([5]; Mus musculus): 23.7%
5 | CCC(C)CN(C)c1ncc(-c2c3c(cc4cc(OC)c(OC)cc24)COC3=O)cn1 (stereo not shown) [Example 65, 6,7-dimethoxy-9-(2-(methyl(2-methylbutyl)amino)pyrimidin-5-yl)naphtho[2,3-c]furan-1(3H)-one] | 19.30 | 2.59 µM | 1.5 pg/mL | 25.2 pg/mL | > 50 µM |  | IC50 [3, 10]: 2.18 µM; inhibition at 1 µM [4, 11]: 99.5%; inhibition at 1 µM [5, 11]: 73%
6 | CCOC(=O)[C@@H]1CCCN1c1ncc(-c2c3c(cc4cc(OC)c(OC)cc24)COC3=O)cn1 [Example 19, (S)ethyl 1-(5-(6,7-dimethoxy-3-oxo-1,3-dihydronaphtho[2,3-c]furan-4-yl)pyrimidin-2-yl)pyrrolidin-2-carboxylate] | 1.60 | 31.3 µM |  |  | > 50 µM | 92.3% | 
7 | COc1cc2cc3c(c(-c4cnc(Nc5ccc(C)c(C)c5)nc4)c2cc1OC)C(=O)OC3 [Example 14, 9-(2-((3,4-dimethylphenyl)amino)pyrimidin-5-yl)-6,7-dimethoxynaphtho[2,3-c]furan-1(3H)-one] | 3.31 | 15.1 µM |  |  | > 50 µM | 58.9% | 
8 | CCC(C)Oc1ncc(-c2c3c(cc4cc(OC)c(OC)cc24)COC3=O)cn1 (stereo not shown) [Example 25, 9-(2-(sec-butoxy)pyrimidin-5-yl)-6,7-dimethoxynaphtho[2,3-c]furan-1(3H)-one] | 1.00 | > 50 µM |  |  | > 50 µM | 56.8% | 
9 | C[C@@H]1C[C@H]2[C@@H]3CCC4=CC(=O)C=C[C@]4(C)[C@@]3(F)[C@@H](O)C[C@]2(C)[C@@]1(O)C(=O)CO [Dexamethasone, dexamethasone, reference compound] |  |  |  |  |  |  | BALF IL-4 Secretion inhibitory ability % [8]: (102.7%); BALF IL-5 Secretion inhibitory ability % [8]: (50.0%); BALF IgE Secretion inhibitory ability % [8]: (93.0%); BALF IL-4 pg/ml ([8]; Mean ± S.D., n = 5, ten days): 32.9 ± 4.534 ^## pg/ml; BALF IL-5 pg/ml ([8]; Mean ± S.D., n = 5, ten days): 15.6 ± 8.07 pg/mL; BALF IgE ng/ml ([8]; Mean ± S.D., n = 5, ten days): 1.3 ± 0.536 ^## ng/ml
10 | COc1cc2cc3c(c(-c4cnc(O[C@H]5CN6CCC5CC6)nc4)c2cc1OC)C(=O)OC3 [Example 17, (R)-6,7-dimethoxy-9-(2-(quinuclidin-3-yloxy)pyrimidin-5-yl)naphtho[2,3-c]furan-1(3H)-one] | 1.59 |  |  |  | > 50 µM |  | IC50 [2, 13]: 31.4 µM; inhibition at 0.001 µM ([7]; Mus musculus): 55.2%
11 | COc1cc2cc3c(c(-c4cnc(NCCCn5ccnc5)nc4)c2cc1OC)C(=O)OC3 [Example 16, 9-(2-((3-(1H-imidazol-1-yl)propyl)amino)pyrimidin-5-yl)-6,7-dimethoxynaphtho[2,3-c]furan-1(3H)-one] | 1.6 | 31.2 µM |  |  | > 50 µM | 70.8% | 
12 | COCCN(C)c1ncc(-c2c3c(cc4cc(OC)c(OC)cc24)COC3=O)cn1 [Example 18, 6,7-dimethoxy-9-(2-((2-methoxyethyl)(methyl)amino)pyrimidin-5-yl)naphtho[2,3-c]furan-1(3H)-one] | 99.07 | 0.5 µM |  |  | > 50 µM | 72.3% | 
